Reference: ChEMBL document CHEMBL4219183, “Novel purine benzimidazoles as antimicrobial agents by regulating ROS generation and targeting clinically resistant Staphylococcus aureus DNA groove” (Bioorg Med Chem Lett, 2018)
In brackets after ≈: the same amount, converted by molar mass.

Key:
Type in all cases: functional
Candida parapsilosis = assay: Antifungal activity against Candida parapsilosis ATCC 22019 after 24 hrs by two fold serial dilution method; details: ATCC 22019, 24 h
Klebsiella pneumoniae = assay: Antibacterial activity against Klebsiella pneumoniae after 24 hrs by two fold serial dilution method
Candida tropicalis = assay: Antifungal activity against Candida tropicalis after 24 hrs by two fold serial dilution method
Candida albicans [1] = assay: Antifungal activity against Candida albicans after 24 hrs by two fold serial dilution method
Escherichia coli [2] = assay: Antibacterial activity against Escherichia coli ATCC 25922 after 24 hrs by two fold serial dilution method; details: ATCC 25922, 24 h
Staphylococcus aureus [3] = assay: Antibacterial activity against Staphylococcus aureus ATCC 29213 after 24 hrs by two fold serial dilution method; details: ATCC 29213, 24 h
Staphylococcus aureus [4] = assay: Antibacterial activity against methicillin-resistant Staphylococcus aureus N315 after 24 hrs by two fold serial dilution method; details: N315, 24 h
Candida albicans [5] = assay: Antifungal activity against Candida albicans ATCC 90023 after 24 hrs by two fold serial dilution method; details: ATCC 90023, 24 h
Staphylococcus aureus [6] = assay: Antibacterial activity against Staphylococcus aureus ATCC 25923 after 24 hrs by two fold serial dilution method; details: ATCC 25923, 24 h
Aspergillus fumigatus = assay: Antifungal activity against Aspergillus fumigatus after 24 hrs by two fold serial dilution method
Escherichia coli [7] = assay: Antibacterial activity against Escherichia coli after 24 hrs by two fold serial dilution method
Acinetobacter baumannii = assay: Antibacterial activity against Acinetobacter baumannii after 24 hrs by two fold serial dilution method
Enterococcus faecalis = assay: Antibacterial activity against Enterococcus faecalis after 24 hrs by two fold serial dilution method
Pseudomonas aeruginosa [8] = assay: Antibacterial activity against Pseudomonas aeruginosa after 24 hrs by two fold serial dilution method
Pseudomonas aeruginosa [9] = assay: Antibacterial activity against Pseudomonas aeruginosa ATCC 27853 after 24 hrs by two fold serial dilution method; details: ATCC 27853, 24 h
Staphylococcus aureus [10] = assay: Antibacterial activity against Staphylococcus aureus after 24 hrs by two fold serial dilution method

| Structure (SMILES) | MIC80 (Candida parapsilosis) | MIC (Klebsiella pneumoniae) | MIC80 (Candida tropicalis) | MIC80 (Candida albicans [1]) | MIC (Escherichia coli [2]) | MIC (Staphylococcus aureus [3]) | MIC (Staphylococcus aureus [4]) | MIC80 (Candida albicans [5]) | MIC (Staphylococcus aureus [6]) | MIC80 (Aspergillus fumigatus) | MIC (Escherichia coli [7]) | MIC (Acinetobacter baumannii) | MIC (Enterococcus faecalis) | MIC (Pseudomonas aeruginosa [8]) | MIC (Pseudomonas aeruginosa [9]) | MIC (Staphylococcus aureus [10]) |
| --- | --- | --- | --- | --- | --- | --- | --- | --- | --- | --- | --- | --- | --- | --- | --- | --- |
| Clc1ccc(Cn2c(Cn3cnc4c(N5CCOCC5)ncnc43)nc3ccccc32)cc1 | 512 µg/mL (≈ 1110 µM) | 256 µg/mL (≈ 557 µM) | 64 µg/mL (≈ 139 µM) | 256 µg/mL (≈ 557 µM) | 256 µg/mL (≈ 557 µM) | 256 µg/mL (≈ 557 µM) | 512 µg/mL (≈ 1110 µM) | 128 µg/mL (≈ 278 µM) | 128 µg/mL (≈ 278 µM) | 256 µg/mL (≈ 557 µM) | 256 µg/mL (≈ 557 µM) | 512 µg/mL (≈ 1110 µM) | 256 µg/mL (≈ 557 µM) | 512 µg/mL (≈ 1110 µM) | 128 µg/mL (≈ 278 µM) | 512 µg/mL (≈ 1110 µM) |
| Fc1ccc(Cn2c(Cn3cnc4c(N5CCOCC5)ncnc43)nc3ccccc32)cc1 | 256 µg/mL (≈ 577 µM) | 128 µg/mL (≈ 289 µM) | 64 µg/mL (≈ 144 µM) | 256 µg/mL (≈ 577 µM) | 256 µg/mL (≈ 577 µM) | 256 µg/mL (≈ 577 µM) | 256 µg/mL (≈ 577 µM) | 128 µg/mL (≈ 289 µM) | 64 µg/mL (≈ 144 µM) | 256 µg/mL (≈ 577 µM) | 128 µg/mL (≈ 289 µM) | 256 µg/mL (≈ 577 µM) | 256 µg/mL (≈ 577 µM) | 256 µg/mL (≈ 577 µM) | 64 µg/mL (≈ 144 µM) | 512 µg/mL (≈ 1150 µM) |
| CCn1cc(C(=O)O)c(=O)c2cc(F)c(N3CCNCC3)cc21 [NORFLOXACIN] | – | > 512 µg/mL | – | – | 1 µg/mL (≈ 3.13 µM) | 8 µg/mL (≈ 25.1 µM) | > 512 µg/mL | – | 32 µg/mL (≈ 100 µM) | – | 512 µg/mL (≈ 1600 µM) | 32 µg/mL (≈ 100 µM) | 256 µg/mL (≈ 802 µM) | 4 µg/mL (≈ 12.5 µM) | 512 µg/mL (≈ 1600 µM) | 64 µg/mL (≈ 200 µM) |
| Fc1ccccc1Cn1c(Cn2cnc3c(N4CCOCC4)ncnc32)nc2ccccc21 | 512 µg/mL (≈ 1150 µM) | 64 µg/mL (≈ 144 µM) | 256 µg/mL (≈ 577 µM) | 256 µg/mL (≈ 577 µM) | 256 µg/mL (≈ 577 µM) | 16 µg/mL (≈ 36.1 µM) | 256 µg/mL (≈ 577 µM) | 64 µg/mL (≈ 144 µM) | 128 µg/mL (≈ 289 µM) | 64 µg/mL (≈ 144 µM) | 64 µg/mL (≈ 144 µM) | 128 µg/mL (≈ 289 µM) | 64 µg/mL (≈ 144 µM) | 32 µg/mL (≈ 72.2 µM) | 32 µg/mL (≈ 72.2 µM) | 256 µg/mL (≈ 577 µM) |
| CCCCCCCCCCCCn1c(Cn2cnc3c(N4CCOCC4)ncnc32)nc2ccccc21 | 256 µg/mL (≈ 508 µM) | 256 µg/mL (≈ 508 µM) | 64 µg/mL (≈ 127 µM) | 256 µg/mL (≈ 508 µM) | 256 µg/mL (≈ 508 µM) | 512 µg/mL (≈ 1020 µM) | 512 µg/mL (≈ 1020 µM) | 64 µg/mL (≈ 127 µM) | 512 µg/mL (≈ 1020 µM) | 256 µg/mL (≈ 508 µM) | 32 µg/mL (≈ 63.5 µM) | 512 µg/mL (≈ 1020 µM) | 128 µg/mL (≈ 254 µM) | 128 µg/mL (≈ 254 µM) | 128 µg/mL (≈ 254 µM) | 16 µg/mL (≈ 31.8 µM) |
| c1nc(N2CCOCC2)c2nc[nH]c2n1 | 512 µg/mL (≈ 2490 µM) | 128 µg/mL (≈ 624 µM) | 256 µg/mL (≈ 1250 µM) | 256 µg/mL (≈ 1250 µM) | 256 µg/mL (≈ 1250 µM) | 512 µg/mL (≈ 2490 µM) | 512 µg/mL (≈ 2490 µM) | 256 µg/mL (≈ 1250 µM) | 512 µg/mL (≈ 2490 µM) | 256 µg/mL (≈ 1250 µM) | 256 µg/mL (≈ 1250 µM) | 256 µg/mL (≈ 1250 µM) | 128 µg/mL (≈ 624 µM) | 256 µg/mL (≈ 1250 µM) | 256 µg/mL (≈ 1250 µM) | 256 µg/mL (≈ 1250 µM) |
| CC(=O)c1nc2ccccc2n1CCn1cnc2c(N3CCOCC3)ncnc21 | 512 µg/mL (≈ 1310 µM) | 32 µg/mL (≈ 81.8 µM) | 256 µg/mL (≈ 654 µM) | 256 µg/mL (≈ 654 µM) | 128 µg/mL (≈ 327 µM) | 128 µg/mL (≈ 327 µM) | 256 µg/mL (≈ 654 µM) | 128 µg/mL (≈ 327 µM) | 64 µg/mL (≈ 164 µM) | 128 µg/mL (≈ 327 µM) | 128 µg/mL (≈ 327 µM) | 64 µg/mL (≈ 164 µM) | 64 µg/mL (≈ 164 µM) | 8 µg/mL (≈ 20.4 µM) | 32 µg/mL (≈ 81.8 µM) | 32 µg/mL (≈ 81.8 µM) |
| FC(F)(F)c1nc2ccccc2n1CCn1cnc2c(N3CCOCC3)ncnc21 | 128 µg/mL (≈ 307 µM) | 64 µg/mL (≈ 153 µM) | 256 µg/mL (≈ 613 µM) | 256 µg/mL (≈ 613 µM) | 128 µg/mL (≈ 307 µM) | 128 µg/mL (≈ 307 µM) | 256 µg/mL (≈ 613 µM) | 256 µg/mL (≈ 613 µM) | 64 µg/mL (≈ 153 µM) | 256 µg/mL (≈ 613 µM) | 32 µg/mL (≈ 76.7 µM) | 64 µg/mL (≈ 153 µM) | 64 µg/mL (≈ 153 µM) | 128 µg/mL (≈ 307 µM) | 64 µg/mL (≈ 153 µM) | 32 µg/mL (≈ 76.7 µM) |
| OC(Cn1cncn1)(Cn1cncn1)c1ccc(F)cc1F [FLUCONAZOLE] | 2 µg/mL (≈ 6.53 µM) | – | 256 µg/mL (≈ 836 µM) | 64 µg/mL (≈ 209 µM) | – | – | – | 1 µg/mL (≈ 3.27 µM) | – | 256 µg/mL (≈ 836 µM) | – | – | – | – | – | – |
